Results reported in PubChem BioAssay (NCI).
Where “and” joins values, the source holds several entries; their conditions need not be identical. Equal entries are not always repeated.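 Exposure lasted 48 hours, with cells grown in 96-well plates and compounds tested at five concentrations. Here, GI50 denotes the concentration required for 50% inhibition of growth. TGI: total growth inhibition.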

Experiments:
Assay in all cases: NCI anticancer screen, dose series, 48 h
SNB-19 CNS = tested on: SNB-19 CNS
HCC-2998 colon = tested on: HCC-2998 colon
DLD-1 colon = tested on: DLD-1 colon
SK-OV-3 ovarian = tested on: SK-OV-3 ovarian
ACHN renal = tested on: ACHN renal
K-562 leukemia = tested on: K-562 leukemia
SF-295 CNS = tested on: SF-295 CNS
SK-MEL-5 melanoma = tested on: SK-MEL-5 melanoma
XF 498 CNS = tested on: XF 498 CNS
NCI-H522 lung = tested on: NCI-H522 lung
RXF 393 renal = tested on: RXF 393 renal
MOLT-4 leukemia = tested on: MOLT-4 leukemia
COLO 205 colon = tested on: COLO 205 colon
MALME-3M melanoma = tested on: MALME-3M melanoma
SF-268 CNS = tested on: SF-268 CNS
SW-620 colon = tested on: SW-620 colon
OVCAR-3 ovarian = tested on: OVCAR-3 ovarian
UACC-62 melanoma = tested on: UACC-62 melanoma
CAKI-1 renal = tested on: CAKI-1 renal
SK-MEL-28 melanoma = tested on: SK-MEL-28 melanoma
LXFL 529 NSCLC = tested on: LXFL 529 NSCLC
KM20L2 colon = tested on: KM20L2 colon
RPMI-8226 leukemia = tested on: RPMI-8226 leukemia
HT29 colon = tested on: HT29 colon
U251 CNS = tested on: U251 CNS
SK-MEL-2 melanoma = tested on: SK-MEL-2 melanoma
SNB-75 CNS = tested on: SNB-75 CNS
SR leukemia = tested on: SR leukemia
HCT-116 colon = tested on: HCT-116 colon
HCT-15 colon = tested on: HCT-15 colon
HOP-92 NSCLC = tested on: HOP-92 NSCLC
HOP-18 NSCLC = tested on: HOP-18 NSCLC
SN12C renal = tested on: SN12C renal
LOX IMVI melanoma = tested on: LOX IMVI melanoma
786-0 renal = tested on: 786-0 renal
EKVX NSCLC = tested on: EKVX NSCLC
KM12 colon = tested on: KM12 colon
NCI-H460 lung = tested on: NCI-H460 lung
IGROV1 ovarian = tested on: IGROV1 ovarian
TK-10 renal = tested on: TK-10 renal
DMS 273 small cell lung = tested on: DMS 273 small cell lung
A549 NSCLC = tested on: A549 NSCLC
OVCAR-4 ovarian = tested on: OVCAR-4 ovarian
NCI-H226 lung = tested on: NCI-H226 lung
NCI-H23 lung = tested on: NCI-H23 lung
SF-539 CNS = tested on: SF-539 CNS
DMS 114 small cell lung = tested on: DMS 114 small cell lung
M14 melanoma = tested on: M14 melanoma
UO-31 renal = tested on: UO-31 renal
M19-MEL melanoma = tested on: M19-MEL melanoma
CCRF-CEM leukemia = tested on: CCRF-CEM leukemia
HOP-62 NSCLC = tested on: HOP-62 NSCLC
OVCAR-8 ovarian = tested on: OVCAR-8 ovarian
SNB-78 CNS = tested on: SNB-78 CNS
HL-60(TB) leukemia = tested on: HL-60(TB) leukemia
OVCAR-5 ovarian = tested on: OVCAR-5 ovarian
UACC-257 melanoma = tested on: UACC-257 melanoma
A498 renal = tested on: A498 renal

COc1cc(C2c3cc4c(cc3[C@@H](NCCCN3CCCC3=O)C3COC(=O)[C@H]23)OCO4)cc(OC)c1O (some centres not stated)
GI50 (SNB-19 CNS): 38 µM and > 17.5 µM
TGI (SNB-19 CNS): > 100 µM
TGI (HCC-2998 colon): 85.7 µM
TGI (DLD-1 colon): > 100 µM
TGI (SK-OV-3 ovarian): 39.4 µM
TGI (ACHN renal): 16.5 µM
TGI (K-562 leukemia): > 100 µM
TGI (SF-295 CNS): > 100 µM
GI50 (SK-MEL-5 melanoma): 4.21 µM and 0.526 µM
TGI (SK-MEL-5 melanoma): 33.5 µM and > 17.5 µM
TGI (XF 498 CNS): > 100 µM
GI50 (NCI-H522 lung): 5.65 µM
TGI (NCI-H522 lung): 84.3 µM
TGI (RXF 393 renal): > 100 µM
TGI (MOLT-4 leukemia): > 100 µM
TGI (COLO 205 colon): > 100 µM
GI50 (MALME-3M melanoma): 11 µM
TGI (MALME-3M melanoma): > 100 µM
GI50 (SF-268 CNS): 9.24 µM and 1.58 µM
TGI (SF-268 CNS): > 100 µM
TGI (SW-620 colon): > 100 µM
TGI (OVCAR-3 ovarian): > 100 µM
GI50 (UACC-62 melanoma): 4.03 µM and 0.677 µM
TGI (UACC-62 melanoma): 26 µM and > 17.5 µM
TGI (CAKI-1 renal): > 100 µM
TGI (SK-MEL-28 melanoma): > 100 µM
TGI (LXFL 529 NSCLC): > 100 µM
TGI (KM20L2 colon): > 100 µM
TGI (RPMI-8226 leukemia): > 100 µM
TGI (HT29 colon): > 100 µM
TGI (U251 CNS): 63 µM and > 17.5 µM
TGI (SK-MEL-2 melanoma): > 100 µM
TGI (SNB-75 CNS): 6.81 µM
TGI (SR leukemia): > 100 µM
TGI (HCT-116 colon): > 100 µM
TGI (HCT-15 colon): > 100 µM
TGI (HOP-92 NSCLC): 71.1 µM and > 17.5 µM
TGI (HOP-18 NSCLC): > 100 µM
TGI (SN12C renal): 80.9 µM and > 17.5 µM
GI50 (LOX IMVI melanoma): 8.13 µM and 0.813 µM
TGI (LOX IMVI melanoma): 33.7 µM and > 17.5 µM
TGI (786-0 renal): 60.4 µM and > 17.5 µM
TGI (EKVX NSCLC): > 100 µM
TGI (KM12 colon): > 100 µM
GI50 (NCI-H460 lung): 1.54 µM and 0.58 µM
TGI (NCI-H460 lung): 15.7 µM and > 17.5 µM
TGI (IGROV1 ovarian): > 100 µM
TGI (TK-10 renal): > 100 µM
GI50 (DMS 273 small cell lung): 3.59 µM and 0.476 µM
TGI (DMS 273 small cell lung): 21.3 µM and > 17.5 µM
GI50 (A549 NSCLC): 6.23 µM and 1.01 µM
TGI (A549 NSCLC): 40 µM and > 17.5 µM
GI50 (OVCAR-4 ovarian): > 100 µM
TGI (OVCAR-4 ovarian): > 100 µM
GI50 (NCI-H226 lung): 3.38 µM and 1.35 µM
TGI (NCI-H226 lung): 23 µM and 9.53 µM
GI50 (NCI-H23 lung): 5.27 µM
TGI (NCI-H23 lung): 32.2 µM
GI50 (SF-539 CNS): 3.65 µM
TGI (SF-539 CNS): 21.4 µM
GI50 (DMS 114 small cell lung): 2.89 µM and 0.701 µM
TGI (DMS 114 small cell lung): 9.46 µM and > 17.5 µM
TGI (M14 melanoma): > 100 µM
TGI (UO-31 renal): 43.7 µM and > 17.5 µM
TGI (M19-MEL melanoma): > 100 µM
TGI (CCRF-CEM leukemia): > 100 µM
GI50 (HOP-62 NSCLC): 5.45 µM and 0.712 µM
TGI (HOP-62 NSCLC): 34.3 µM and > 17.5 µM
TGI (OVCAR-8 ovarian): > 100 µM

Cc1ccc(C2C(Cl)C(=O)N2n2cnc3ccccc3c2=O)cc1 (configuration not stated)
TGI (SNB-19 CNS): > 100 µM
TGI (HCC-2998 colon): > 100 µM
TGI (DLD-1 colon): > 100 µM
TGI (SK-OV-3 ovarian): > 100 µM
TGI (ACHN renal): > 100 µM
TGI (K-562 leukemia): > 100 µM
TGI (SF-295 CNS): > 100 µM
TGI (SK-MEL-5 melanoma): > 100 µM
TGI (XF 498 CNS): > 100 µM
TGI (NCI-H522 lung): > 100 µM
TGI (SNB-78 CNS): > 100 µM
TGI (RXF 393 renal): > 100 µM
TGI (MOLT-4 leukemia): > 100 µM
TGI (COLO 205 colon): > 100 µM
TGI (MALME-3M melanoma): > 100 µM
TGI (SF-268 CNS): > 100 µM
TGI (SW-620 colon): > 100 µM
TGI (OVCAR-3 ovarian): > 100 µM
TGI (UACC-62 melanoma): > 100 µM
TGI (CAKI-1 renal): > 100 µM
TGI (SK-MEL-28 melanoma): > 100 µM
TGI (LXFL 529 NSCLC): > 100 µM
TGI (KM20L2 colon): > 100 µM
TGI (RPMI-8226 leukemia): > 100 µM
TGI (HT29 colon): > 100 µM
TGI (U251 CNS): > 100 µM
TGI (SK-MEL-2 melanoma): > 100 µM
TGI (SNB-75 CNS): > 100 µM
TGI (SR leukemia): > 100 µM
TGI (HCT-116 colon): > 100 µM
TGI (HCT-15 colon): > 100 µM
TGI (HL-60(TB) leukemia): > 100 µM
TGI (HOP-18 NSCLC): > 100 µM
TGI (SN12C renal): > 100 µM
TGI (LOX IMVI melanoma): > 100 µM
TGI (786-0 renal): > 100 µM
TGI (EKVX NSCLC): > 100 µM
TGI (KM12 colon): > 100 µM
TGI (NCI-H460 lung): > 100 µM
TGI (IGROV1 ovarian): > 100 µM
TGI (OVCAR-5 ovarian): > 100 µM
TGI (TK-10 renal): > 100 µM
TGI (DMS 273 small cell lung): > 100 µM
TGI (A549 NSCLC): > 100 µM
TGI (OVCAR-4 ovarian): > 100 µM
TGI (NCI-H226 lung): > 100 µM
TGI (NCI-H23 lung): > 100 µM
TGI (DMS 114 small cell lung): > 100 µM
TGI (M14 melanoma): > 100 µM
TGI (UO-31 renal): 90.4 µM
TGI (M19-MEL melanoma): > 100 µM
TGI (CCRF-CEM leukemia): > 100 µM
TGI (HOP-62 NSCLC): > 100 µM
TGI (UACC-257 melanoma): > 100 µM
TGI (OVCAR-8 ovarian): > 100 µM

Cc1c(C(=N)N)oc2ccccc12
TGI (SNB-19 CNS): > 100 µM
TGI (HCC-2998 colon): > 100 µM
TGI (DLD-1 colon): > 100 µM
TGI (SK-OV-3 ovarian): > 100 µM
TGI (ACHN renal): > 100 µM
TGI (K-562 leukemia): > 100 µM
TGI (SF-295 CNS): > 100 µM
TGI (SK-MEL-5 melanoma): > 100 µM
TGI (XF 498 CNS): > 100 µM
TGI (NCI-H522 lung): > 100 µM
TGI (SNB-78 CNS): > 100 µM
TGI (RXF 393 renal): > 100 µM
TGI (MOLT-4 leukemia): > 100 µM
TGI (COLO 205 colon): > 100 µM
TGI (MALME-3M melanoma): > 100 µM
TGI (SF-268 CNS): > 100 µM
TGI (SW-620 colon): > 100 µM
TGI (OVCAR-3 ovarian): > 100 µM
TGI (UACC-62 melanoma): > 100 µM
TGI (CAKI-1 renal): > 100 µM
TGI (SK-MEL-28 melanoma): > 100 µM
TGI (LXFL 529 NSCLC): > 100 µM
TGI (KM20L2 colon): > 100 µM
TGI (HT29 colon): > 100 µM
TGI (U251 CNS): > 100 µM
TGI (SNB-75 CNS): > 100 µM
TGI (SR leukemia): > 100 µM
TGI (HCT-116 colon): > 100 µM
TGI (HOP-92 NSCLC): > 100 µM
TGI (HL-60(TB) leukemia): > 100 µM
TGI (HOP-18 NSCLC): > 100 µM
TGI (SN12C renal): > 100 µM
TGI (LOX IMVI melanoma): > 100 µM
TGI (786-0 renal): > 100 µM
TGI (EKVX NSCLC): > 100 µM
TGI (KM12 colon): > 100 µM
TGI (NCI-H460 lung): > 100 µM
TGI (IGROV1 ovarian): > 100 µM
TGI (TK-10 renal): > 100 µM
TGI (A549 NSCLC): > 100 µM
TGI (OVCAR-4 ovarian): > 100 µM
TGI (NCI-H226 lung): > 100 µM
TGI (NCI-H23 lung): > 100 µM
TGI (SF-539 CNS): > 100 µM
TGI (DMS 114 small cell lung): > 100 µM
TGI (M14 melanoma): > 100 µM
TGI (UO-31 renal): > 100 µM
TGI (M19-MEL melanoma): > 100 µM
TGI (CCRF-CEM leukemia): > 100 µM
TGI (HOP-62 NSCLC): > 100 µM
TGI (A498 renal): > 100 µM
TGI (UACC-257 melanoma): > 100 µM
TGI (OVCAR-8 ovarian): > 100 µM
